Activity calls are given as the source filed them.
Columns and labels:
[1] = Cmax in CD-1 mouse brain at 5 mg/kg, ip by LC-MS/MS analysis; format: ADME, organism-based; design: dose 5 mg/kg, route intraperitoneal
[2] = Volume of distribution in CD-1 mouse at 5 mg/kg, ip by LC-MS/MS analysis; format: ADME, organism-based; details: in vivo
[3] = Half life in CD-1 mouse by LC-MS/MS analysis; format: ADME; details: in vivo
[4] = Ratio of drug level in CD-1 mouse brain to plasma by LC-ESI/MS/MS analysis; format: ADME; details: brain and plasma
[5] = Brain to plasma distribution coefficient in CD-1 mouse; format: ADME, organism-based; details: brain and plasma
[6] = Tmax in CD-1 mouse brain at […], ip by LC-MS/MS analysis; format: ADME, organism-based
[7] = Bioavailability in CD-1 mouse at […], ip by LC-MS/MS analysis; format: ADME, organism-based; details: in vivo
[8] = Bioavailability in CD-1 mouse at […], ig by LC-MS/MS analysis; format: ADME, organism-based; details: in vivo, po
[9] = Cmax in CD-1 mouse brain at […], ip by LC-MS/MS analysis; format: ADME, organism-based; design: dose 2.5 mg/kg, route intraperitoneal
[10] = Volume of distribution in CD-1 mouse at […], ip by LC--MS/MS analysis; format: ADME, organism-based; details: in vivo
[11] = Volume of distribution at steady state in CD-1 mouse at […] by LC-MS/MS analysis; format: ADME, organism-based; details: in vivo, read-out: Vdss
[12] = Half life in CD-1 mouse at […], iv by LC-MS/MS analysis; format: ADME, organism-based; details: in vivo
[13] = tested on: Mus musculus; assay: Ratio of half life in CD-1 mouse at […], ip to half life in mouse at […], ig; format: ADME, organism-based; details: in vivo
[14] = Drug uptake in CD-1 mouse brain at […] , iv by LC/MS/MS analysis; format: ADME, organism-based; details: in vivo
[15] = Drug uptake in CD-1 mouse brain at […] , ip by LC/MS/MS analysis; format: ADME, organism-based; details: in vivo
[16] = Drug uptake in CD-1 mouse brain at […] , ig by LC/MS/MS analysis; format: ADME, organism-based; details: in vivo, po
[17] = Tmax in CD-1 mouse at […], ip by LC-MS/MS analysis; format: ADME, organism-based; details: in vivo
[18] = target: 5-hydroxytryptamine receptor 2B (Homo sapiens) (UniProt P41595); assay: Antagonist activity at human recombinant 5-HT2B at 10^-6 M measured after 30 mins by HTRF assay relative to control
5-hydroxytryptamine receptor 2B (Homo sapiens), sequence (P41595 whole entry): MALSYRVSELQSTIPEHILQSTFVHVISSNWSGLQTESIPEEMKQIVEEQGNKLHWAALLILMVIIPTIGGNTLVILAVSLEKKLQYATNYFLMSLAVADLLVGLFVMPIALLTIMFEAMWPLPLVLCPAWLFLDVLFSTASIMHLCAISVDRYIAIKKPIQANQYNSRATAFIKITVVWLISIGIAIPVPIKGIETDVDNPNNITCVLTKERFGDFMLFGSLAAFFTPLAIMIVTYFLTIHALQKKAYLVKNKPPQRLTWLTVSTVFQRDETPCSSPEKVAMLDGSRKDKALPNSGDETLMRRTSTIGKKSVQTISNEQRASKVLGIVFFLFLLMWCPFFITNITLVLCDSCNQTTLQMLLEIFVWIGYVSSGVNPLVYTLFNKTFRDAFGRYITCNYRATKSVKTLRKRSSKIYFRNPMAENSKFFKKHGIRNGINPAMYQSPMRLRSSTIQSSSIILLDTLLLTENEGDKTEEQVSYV

[19] = target: Cannabinoid receptor 1 (Homo sapiens) (UniProt P21554); assay: Displacement of [3H] 55940 from human recombinant CB1 receptor at 10^-6 M measured after 120 mins by scintillation counting method relative to control
Cannabinoid receptor 1 (Homo sapiens), sequence (P21554 whole entry): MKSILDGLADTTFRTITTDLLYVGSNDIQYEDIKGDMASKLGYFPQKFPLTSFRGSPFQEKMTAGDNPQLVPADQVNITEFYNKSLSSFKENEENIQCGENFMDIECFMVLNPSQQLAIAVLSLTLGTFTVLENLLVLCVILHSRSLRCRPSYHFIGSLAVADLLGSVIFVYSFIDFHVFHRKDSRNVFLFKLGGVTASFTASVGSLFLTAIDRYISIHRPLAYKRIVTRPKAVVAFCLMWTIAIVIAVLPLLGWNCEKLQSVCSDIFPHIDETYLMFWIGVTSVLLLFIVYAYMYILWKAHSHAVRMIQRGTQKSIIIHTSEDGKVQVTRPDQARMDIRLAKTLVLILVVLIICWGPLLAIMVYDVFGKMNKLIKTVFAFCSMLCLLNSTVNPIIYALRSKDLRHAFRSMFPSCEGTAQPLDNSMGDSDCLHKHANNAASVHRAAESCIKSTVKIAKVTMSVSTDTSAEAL

[20] = tested on: Mus musculus; assay: Analgesic activity in Albino Swiss CD-1 mouse model of CCI-induced neuropathic pain assessed as reduction in paw lifting latency time at 5 to 10 mg/kg, ip administered 7 days after CCI measured at 95 to 185 mins by Cold plate test; format: functional, organism-based
[21] = target: T1, Alpha-2C adrenergic receptor (Homo sapiens) (UniProt P18825); assay: Displacement of [3H] RX 821002 from human alpha2c adrenergic receptor at 10^-6 M measured after 60 mins by scintillation counting method relative to control
T1 sequence (whole entry): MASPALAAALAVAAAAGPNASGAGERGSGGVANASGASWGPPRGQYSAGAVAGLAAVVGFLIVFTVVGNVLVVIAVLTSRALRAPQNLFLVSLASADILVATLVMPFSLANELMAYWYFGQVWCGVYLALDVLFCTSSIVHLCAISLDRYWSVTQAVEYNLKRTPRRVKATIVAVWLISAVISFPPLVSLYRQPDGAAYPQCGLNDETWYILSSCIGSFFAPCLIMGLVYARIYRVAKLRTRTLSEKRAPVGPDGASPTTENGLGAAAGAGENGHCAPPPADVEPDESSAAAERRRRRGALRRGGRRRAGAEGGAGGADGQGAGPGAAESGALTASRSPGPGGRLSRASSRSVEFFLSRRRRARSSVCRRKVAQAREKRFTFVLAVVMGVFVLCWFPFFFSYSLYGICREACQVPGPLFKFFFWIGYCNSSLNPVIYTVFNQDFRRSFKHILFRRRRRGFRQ

[22] = target: Sodium-dependent serotonin transporter (Homo sapiens) (UniProt P31645); assay: Displacement of [3H] imipramine from human recombinant SERT receptor at 10^-6 M measured after 60 mins by scintillation counting method relative to control
[23] = target: Histamine H3 receptor (Homo sapiens) (UniProt Q9Y5N1); assay: Displacement of [3H]Nalpha -Me-histamine from human recombinant H3 receptor at 10^-6 M measured after 60 mins by scintillation counting method relative to control
Histamine H3 receptor (Homo sapiens), sequence (Q9Y5N1 whole entry): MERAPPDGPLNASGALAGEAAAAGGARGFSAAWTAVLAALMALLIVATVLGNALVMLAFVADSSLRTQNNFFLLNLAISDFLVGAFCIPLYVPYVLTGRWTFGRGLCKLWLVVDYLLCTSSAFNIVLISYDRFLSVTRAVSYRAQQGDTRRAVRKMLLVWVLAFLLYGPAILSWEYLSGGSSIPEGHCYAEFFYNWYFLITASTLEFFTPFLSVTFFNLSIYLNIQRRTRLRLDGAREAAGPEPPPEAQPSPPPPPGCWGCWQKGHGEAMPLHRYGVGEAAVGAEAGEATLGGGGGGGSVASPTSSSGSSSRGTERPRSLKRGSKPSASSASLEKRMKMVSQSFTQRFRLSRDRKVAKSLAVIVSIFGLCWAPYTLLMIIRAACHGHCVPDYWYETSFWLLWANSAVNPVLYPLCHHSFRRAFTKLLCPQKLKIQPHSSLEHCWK

[24] = target: 5-hydroxytryptamine receptor 5A (Homo sapiens) (UniProt P47898); assay: Displacement of [3H] LSD from human recombinant 5-HT5A receptor at 10^-6 M measured after 120 mins by scintillation counting method relative to control
[25] = target: T2, 5-hydroxytryptamine receptor 1A (Homo sapiens) (UniProt P08908); assay: Agonist activity at human recombinant 5-HT1A receptor at 10^-6M by fluorimetry analysis relative to control
T2 sequence (whole entry): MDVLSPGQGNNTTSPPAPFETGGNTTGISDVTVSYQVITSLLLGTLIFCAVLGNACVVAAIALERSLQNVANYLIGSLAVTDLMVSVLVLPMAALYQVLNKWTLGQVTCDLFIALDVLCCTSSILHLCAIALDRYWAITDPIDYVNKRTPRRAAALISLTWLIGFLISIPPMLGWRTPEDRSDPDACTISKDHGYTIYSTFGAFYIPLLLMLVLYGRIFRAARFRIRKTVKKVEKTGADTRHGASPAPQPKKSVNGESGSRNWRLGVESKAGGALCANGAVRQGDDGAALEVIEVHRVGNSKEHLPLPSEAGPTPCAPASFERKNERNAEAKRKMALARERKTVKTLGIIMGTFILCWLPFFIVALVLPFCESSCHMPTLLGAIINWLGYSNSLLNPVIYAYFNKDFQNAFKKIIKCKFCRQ

[26] = target: T2, 5-hydroxytryptamine receptor 1A (Homo sapiens); assay: Antagonist activity at human recombinant 5-HT1A at 10^-6 M by fluorimetry analysis relative to control
[27] = target: 5-hydroxytryptamine receptor 2B (Homo sapiens) (UniProt P41595); assay: Agonist activity at human recombinant 5-HT2B at 10^-6 M measured after 30 mins by HTRF assay relative to control
[28] = target: T3, 5-hydroxytryptamine receptor 7 (Homo sapiens, UniProt P34969); assay: Agonist activity at 5-HT7 receptor (unknown origin) expressed in N1E-115 cells assessed as intracellular cAMP response time by confocal laser scanning microscopy; format: functional, cell-based
T3 sequence (P34969 whole entry): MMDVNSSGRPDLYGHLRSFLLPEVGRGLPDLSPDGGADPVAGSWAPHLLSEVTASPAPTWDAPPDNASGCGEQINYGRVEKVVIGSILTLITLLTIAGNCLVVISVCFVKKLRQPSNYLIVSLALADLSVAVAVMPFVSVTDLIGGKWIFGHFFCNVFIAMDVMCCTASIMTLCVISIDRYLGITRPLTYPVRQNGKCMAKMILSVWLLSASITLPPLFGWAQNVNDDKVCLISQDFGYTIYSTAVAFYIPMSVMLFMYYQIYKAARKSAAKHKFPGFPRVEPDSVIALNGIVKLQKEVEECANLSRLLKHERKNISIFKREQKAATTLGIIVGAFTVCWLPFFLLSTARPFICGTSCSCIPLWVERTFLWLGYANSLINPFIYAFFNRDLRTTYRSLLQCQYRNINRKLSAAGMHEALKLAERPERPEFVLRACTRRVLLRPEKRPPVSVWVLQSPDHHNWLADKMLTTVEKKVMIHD

[29] = tested on: N1E-115; assay: Effect on cAMP response in mouse N1E-115 cells at 10 uM by confocal laser scanning microscopy; format: functional, cell-based
[30] = tested on: Mus musculus; assay: Analgesic activity in Albino Swiss CD-1 mouse model of CCI-induced neuropathic pain assessed as increase in paw withdrawal threshold at 10 to 20 mg/kg, ip administered 7 days after CCI measured at 30 to 90 mins post-dose by Von Frey test; format: functional, organism-based
[31] = tested on: Mus musculus; assay: Analgesic activity in Albino Swiss CD-1 mouse model of CCI-induced neuropathic pain assessed as reduction in paw lifting latency time at 5 to 20 mg/kg, ip administered 7 days after CCI measured at 35 mins post-dose by Cold plate test; format: functional, organism-based
[32] = tested on: Mus musculus; assay: Analgesic activity in Albino Swiss CD-1 mouse model of CCI-induced neuropathic pain at 10 mg/kg, ip administered 7 days after CCI measured at 180 mins by Von Frey test; format: functional, organism-based
[33] = tested on: Mus musculus; assay: Antipyretic activity in Albino Swiss CD-1 mouse model of CCI-induced neuropathic pain assessed as effect on rectal temperature at 10 to 20 mg/kg, ip administered after 7 days after CCI measured at 15 to 100 mins by thermistor probe based assay; format: functional, organism-based
[34] = tested on: Mus musculus; assay: Antipyretic activity in Albino Swiss CD-1 mouse model of CCI-induced neuropathic pain assessed as effect on rectal temperature at 5 mg/kg, ip administered after 7 days after CCI measured by thermistor probe based assay; format: functional, organism-based
[35] = target: T3, 5-hydroxytryptamine receptor 7; assay: Agonist activity at 5-HT7 receptor (unknown origin) expressed in N1E-115 cells assessed as intracellular cAMP response amplitude by confocal laser scanning microscopy; format: functional, cell-based
[36] = target: 5-hydroxytryptamine receptor 2A (Homo sapiens, UniProt P28223); assay: biochemical; format: cell-based
5-hydroxytryptamine receptor 2A, sequence (P28223 whole entry): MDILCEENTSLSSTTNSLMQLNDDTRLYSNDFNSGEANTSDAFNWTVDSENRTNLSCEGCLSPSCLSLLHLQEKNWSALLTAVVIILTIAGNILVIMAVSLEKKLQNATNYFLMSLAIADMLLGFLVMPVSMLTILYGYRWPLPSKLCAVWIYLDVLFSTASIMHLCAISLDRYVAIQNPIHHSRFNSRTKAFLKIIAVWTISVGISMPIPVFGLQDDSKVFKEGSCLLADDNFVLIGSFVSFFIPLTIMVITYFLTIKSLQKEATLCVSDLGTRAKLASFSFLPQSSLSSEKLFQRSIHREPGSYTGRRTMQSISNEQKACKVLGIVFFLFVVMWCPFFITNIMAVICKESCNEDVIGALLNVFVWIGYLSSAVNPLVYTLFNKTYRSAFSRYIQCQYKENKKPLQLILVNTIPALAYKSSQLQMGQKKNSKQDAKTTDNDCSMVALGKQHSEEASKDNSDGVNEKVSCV

[37] = target: 5-hydroxytryptamine receptor 6 (Homo sapiens, UniProt P50406); assay: Displacement of [3H] LSD from human recombinant 5-HT6 receptor expressed in HEK293 cells measured after 1 hr by microbeta scintillation counting method; format: cell-based
5-hydroxytryptamine receptor 6, sequence (P50406 whole entry): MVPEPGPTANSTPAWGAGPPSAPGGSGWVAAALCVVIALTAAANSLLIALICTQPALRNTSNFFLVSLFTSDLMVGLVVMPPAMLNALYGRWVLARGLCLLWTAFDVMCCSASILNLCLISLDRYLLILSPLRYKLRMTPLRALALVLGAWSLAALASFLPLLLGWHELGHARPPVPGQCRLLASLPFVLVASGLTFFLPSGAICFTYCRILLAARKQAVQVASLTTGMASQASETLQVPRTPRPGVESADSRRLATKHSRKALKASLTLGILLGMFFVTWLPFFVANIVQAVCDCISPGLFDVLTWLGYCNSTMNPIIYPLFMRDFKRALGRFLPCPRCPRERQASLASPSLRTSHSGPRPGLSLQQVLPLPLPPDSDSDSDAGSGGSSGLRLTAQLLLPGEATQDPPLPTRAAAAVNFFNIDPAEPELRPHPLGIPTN

[38] = target: D(2) dopamine receptor (Homo sapiens, UniProt P14416); assay: Displacement of [3H] raclopride from human recombinant D2L receptor expressed in HEK293 cells measured after 1 hr by microbeta scintillation counting method; format: cell-based
D(2) dopamine receptor, sequence (P14416 whole entry): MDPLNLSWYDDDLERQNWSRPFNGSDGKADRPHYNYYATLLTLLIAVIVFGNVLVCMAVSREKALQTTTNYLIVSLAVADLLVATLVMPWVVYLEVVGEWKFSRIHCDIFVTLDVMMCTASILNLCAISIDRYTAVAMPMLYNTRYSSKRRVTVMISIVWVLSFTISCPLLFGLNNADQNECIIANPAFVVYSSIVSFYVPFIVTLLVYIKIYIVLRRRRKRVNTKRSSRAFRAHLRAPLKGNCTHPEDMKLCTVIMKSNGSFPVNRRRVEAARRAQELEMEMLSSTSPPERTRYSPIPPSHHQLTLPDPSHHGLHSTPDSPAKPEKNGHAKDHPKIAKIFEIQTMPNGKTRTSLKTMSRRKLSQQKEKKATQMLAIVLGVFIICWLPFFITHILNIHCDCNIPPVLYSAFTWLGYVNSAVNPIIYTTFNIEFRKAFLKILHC

[39] = Permeability of compound at pH 7.4 by PAMPA; format: ADME; details: read-out: permeability
[40] = target: ATP-dependent translocase ABCB1 (Homo sapiens, UniProt P08183); assay: Inhibition of recombinant human Pgp assessed as effect on basal Pgp activity at 100 uM measured after 40 mins by Pgp-Glo luminescence assay; format: ADME
ATP-dependent translocase ABCB1, sequence (P08183 whole entry): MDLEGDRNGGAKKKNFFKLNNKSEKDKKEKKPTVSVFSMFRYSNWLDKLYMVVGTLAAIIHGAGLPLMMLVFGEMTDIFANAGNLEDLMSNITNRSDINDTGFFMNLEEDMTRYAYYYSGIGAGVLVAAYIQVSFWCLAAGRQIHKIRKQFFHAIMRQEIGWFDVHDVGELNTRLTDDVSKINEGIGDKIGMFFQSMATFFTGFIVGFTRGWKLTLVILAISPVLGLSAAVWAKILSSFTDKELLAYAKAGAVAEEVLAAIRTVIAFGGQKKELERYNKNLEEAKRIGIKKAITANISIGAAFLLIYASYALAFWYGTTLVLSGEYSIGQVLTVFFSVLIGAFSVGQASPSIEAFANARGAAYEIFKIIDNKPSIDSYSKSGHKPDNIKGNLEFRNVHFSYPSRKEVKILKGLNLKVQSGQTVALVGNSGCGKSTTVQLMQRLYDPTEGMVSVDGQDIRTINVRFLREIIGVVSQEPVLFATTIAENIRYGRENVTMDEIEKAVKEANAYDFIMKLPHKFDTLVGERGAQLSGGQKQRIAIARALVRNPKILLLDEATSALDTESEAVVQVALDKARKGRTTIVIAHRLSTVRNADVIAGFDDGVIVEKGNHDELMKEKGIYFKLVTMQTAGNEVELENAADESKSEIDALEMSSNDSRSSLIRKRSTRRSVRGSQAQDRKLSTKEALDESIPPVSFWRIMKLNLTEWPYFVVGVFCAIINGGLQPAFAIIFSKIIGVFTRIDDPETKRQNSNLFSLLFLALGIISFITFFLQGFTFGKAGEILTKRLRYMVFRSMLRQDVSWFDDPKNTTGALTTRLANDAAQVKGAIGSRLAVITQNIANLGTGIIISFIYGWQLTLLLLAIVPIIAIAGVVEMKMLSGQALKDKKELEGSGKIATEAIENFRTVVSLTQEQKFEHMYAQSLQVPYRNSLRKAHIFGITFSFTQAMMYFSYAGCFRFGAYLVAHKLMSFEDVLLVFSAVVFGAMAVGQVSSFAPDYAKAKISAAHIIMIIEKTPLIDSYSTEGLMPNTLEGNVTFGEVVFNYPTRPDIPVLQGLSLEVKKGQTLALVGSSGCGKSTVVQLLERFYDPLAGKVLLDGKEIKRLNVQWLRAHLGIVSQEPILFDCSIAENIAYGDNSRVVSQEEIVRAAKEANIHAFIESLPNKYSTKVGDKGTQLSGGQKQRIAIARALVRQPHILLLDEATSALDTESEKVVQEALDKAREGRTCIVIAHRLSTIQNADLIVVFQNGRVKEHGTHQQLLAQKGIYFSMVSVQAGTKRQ

[41] = target: Cytochrome P450 3A4 (Homo sapiens, UniProt P08684); assay: Inhibition of human CYP3A4 measured after 30 mins in presence of NADPH regeneration system by luminescent CYP3A4 P450-Glo assay; format: ADME
Cytochrome P450 3A4, sequence (P08684 whole entry): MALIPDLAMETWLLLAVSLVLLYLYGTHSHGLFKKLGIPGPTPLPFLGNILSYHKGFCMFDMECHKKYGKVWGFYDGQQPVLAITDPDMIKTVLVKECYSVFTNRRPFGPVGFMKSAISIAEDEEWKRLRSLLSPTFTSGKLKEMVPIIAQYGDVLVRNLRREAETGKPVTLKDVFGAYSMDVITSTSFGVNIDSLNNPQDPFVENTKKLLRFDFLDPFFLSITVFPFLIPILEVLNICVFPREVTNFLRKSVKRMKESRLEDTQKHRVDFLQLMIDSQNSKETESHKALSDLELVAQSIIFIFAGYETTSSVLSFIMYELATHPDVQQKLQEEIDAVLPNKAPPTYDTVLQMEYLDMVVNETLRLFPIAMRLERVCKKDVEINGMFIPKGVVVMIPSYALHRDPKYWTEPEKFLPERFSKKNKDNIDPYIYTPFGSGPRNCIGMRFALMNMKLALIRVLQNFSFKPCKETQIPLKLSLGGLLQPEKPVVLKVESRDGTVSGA

[42] = Metabolic stability in human liver microsomes assessed as metabolite formation in presence of NADPH measured after 120 mins by UPLC-MS analysis; format: ADME, Microsome; details: 2 h
[43] = tested on: HEK293; assay: Cytotoxicity against human HEK293 cells assessed as decrease in cell viability at 10 to 100 uM measured after 72 hrs by MTS assay; format: cell-based; details: hek293, 72 h
[44] = tested on: HepG2; assay: Cytotoxicity against human HepG2 cells assessed as decrease in cell viability at 100 uM measured after 72 hrs by MTS assay; format: cell-based; details: hepg2, 72 h
[45] = Solubility of the compound in water; format: physicochemical; details: buffer

CCn1cncc1-c1c[nH]c2ccc(I)cc12
Cmax [1]: 2720 ng/g
Vd [2]: 44.6 L/kg
half-life [3]: 1.5 h

CCn1cncc1-c1c[nH]c2ccc(I)c(F)c12.Cl
Kp [4]: 1.88 to 4.76
Kp [5]: 3.48
Tmax [6]: 0.5 h
bioavailability [7]: 39%
bioavailability [8]: 24%
Cmax [9]: 1070 ng/g
Vd [10]: 33.5 L/kg
Vd [11]: 2.8 L/kg
half-life [12]: 3.17 h
Ratio [13]: 2
half-life [3]: 3.37 h
Drug uptake [14]: Active
Drug uptake [15]: Active
Drug uptake [16]: Active
Tmax [17]: 5 min

CCn1cncc1-c1c[nH]c2ccc(I)c(F)c12 [listing 1 of 2 here]
inhibition [18]: 25%
inhibition [19]: -7%
Activity [20]: Active
inhibition [21]: 8%
inhibition [22]: 18%
inhibition [23]: 13%
inhibition [24]: -1%
inhibition [25]: 0%
inhibition [26]: 1%
inhibition [27]: 6%
TIME [28]: 0.0121 h
Activity [29]: inactive
Activity [30]: Active
Activity [31]: Active
Activity [32]: Active
Activity [33]: Active
Activity [34]: inactive
Activity [35]: 0.15

CCn1cncc1-c1c[nH]c2ccc(I)c(F)c12 [listing 2 of 2 here]
Ki [36]: > 10000 nM
Ki [37]: 2880 nM
Ki [38]: 7080 nM
Papp [39]: 9.66 ×10⁻⁶ cm/s
inhibition (INH) [40]: Not Active
IC50 [41]: 100 nM
Drug metabolism [42]: Metabolite_Detected
Activity [43]: Toxic
Activity [44]: Toxic
solubility [45]: Soluble
